According to patent US5216005A, “Immunosuppressive analogues and derivatives of succinylacetone” (priority 1990, dated 1993):

What was measured:
[1] = tested on: adjuvant induced arthritis; assay: adjuvant induced arthritis in rats, overall arthritis score; intraarticular right paw, per kg: succinylacetone 325 μg, methyl ester 150 μg, 4-acetyl-5-oxohexanoate 560 μg; type: in vivo, rat
[2] = tested on: IFN-γ (human lymphoid cells); assay: IFN-γ production in primary mixed lymphocyte reaction (WISH cells/EMC virus assay); type: cell-based; design: IFN-γ: unit not given here; conditions: for IFN-γ: 1° MLR
Experimental: Derivatives of succinylacetone were tested for immunosuppressive activity in several different types of assay systems. The first consisted of measuring the amounts of interleukin-2 (IL-2), and interferon-γ (IFN-γ) produced by human lymphoid cells in a mixed lymphocyte reaction. Low levels of these molecules in the reaction mixture indicate that the immune system is being suppressed by the subject succinylacetone derivatives.
IFN-γ was determined by measuring the amount of protection conveyed on human WISH cells against the cytopathic effects of encephalomyocarditis virus (EMC). This assay is described by I. A. Braude, J. of Immunol. Methods 63:237 (1983). Both publications are hereby incorporated by reference.
The mixed lymphocyte reaction assay can be carried out by techniques well known to those skilled in the art. L. Hudson and F. C. Huy, Practical Immunology, p. 260, Blackwell Scientific Publications (1976). Briefly this consists of isolating lymphocytes from human peripheral blood by standard density gradient centrifugation techniques from two separate individuals. Approximately 2×10^5 lymphocytes of each individual are combined to yield a total of 4×10^5 lymphocytes per culture. All procedures are carried out under sterile conditions, and the lymphocytes are isolated and kept in physiologically compatible solutions. To the mixture of lymphocytes is added a desired amount of an appropriate succinylacetone derivative, and after different times an aliquot of the mixture is removed and assayed for IL-2 or IFN-γ, or ^3 H-T is measured.

[3] = tested on: peripheral blood lymphocytes; assay: viability of peripheral blood lymphocytes with or without PHA, trypan blue exclusion; type: cell-based, human
Experimental: (§1) Viability was determined using the trypan blue exclusion method well known in the art. […] The assays were conducted in duplicate wherein peripheral blood lymphocytes were isolated from two separate individuals, and then treated with or without phytohemagglutinin in the presence of various concentrations of the appropriate succinylacetone derivative.

[4] = as above; type: cell-based, human; conditions: human, peripheral blood lymphocytes; for viability at 2200 µM: 2.2 mM; for viability at 6700 µM: 6.7 mM; for viability at 20000 µM: 20 mM
Experimental: as §1

COC(=O)CCC(C(C)=O)C(C)=O [Methyl 4-Acetyl-5-Oxohexanoate, methyl 4-acetyl-5-oxohexanoate]
overall arthritis score ([1]; Exp. I (treated from same day), day 14): 3.2 ± 2.2 | overall arthritis score ([1]; Exp. I (treated from same day), day 16): 3.4 ± 2.2 | overall arthritis score ([1]; Exp. I (treated from same day), day 18): 5.0 ± 3.2 | overall arthritis score ([1]; Exp. I (treated from same day), day 20): 7.0 ± 4.0 | overall arthritis score ([1]; Exp. I (treated from same day), day 22): 8.2 ± 4.9 | overall arthritis score ([1]; Exp. I (treated from same day), day 24): 7.2 ± 4.2 | overall arthritis score ([1]; Exp. I (treated from same day), day 26): 7.2 ± 4.2 | overall arthritis score ([1]; Exp. II (treated from day 4), day 14): 1.0 ± 1.4 | overall arthritis score ([1]; Exp. II (treated from day 4), day 16): 2.2 ± 2.5 | overall arthritis score ([1]; Exp. II (treated from day 4), day 18): 1.8 ± 1.8 | overall arthritis score ([1]; Exp. II (treated from day 4), day 20): 2.2 ± 2.0 | overall arthritis score ([1]; Exp. II (treated from day 4), day 22): 5.0 ± 3.5 | overall arthritis score ([1]; Exp. II (treated from day 4), day 24): 3.4 ± 3.6 | overall arthritis score ([1]; Exp. II (treated from day 4), day 26): 4.0 ± 3.7 | overall arthritis score ([1]; Exp. III (treated from day 14), day 14): 2.0 ± 2.0 | overall arthritis score ([1]; Exp. III (treated from day 14), day 16): 2.4 ± 1.5 | overall arthritis score ([1]; Exp. III (treated from day 14), day 18): 3.4 ± 2.6 | overall arthritis score ([1]; Exp. III (treated from day 14), day 20): 5.6 ± 2.7 | overall arthritis score ([1]; Exp. III (treated from day 14), day 22): 7.4 ± 4.8 | overall arthritis score ([1]; Exp. III (treated from day 14), day 24): 7.4 ± 5.3 | overall arthritis score ([1]; Exp. III (treated from day 14), day 26): 7.4 ± 5.3 | effect on arthritis ([1]; comparison of treatment schedules, in words): apparently most active when administered every other day from day 4 to day 24 | IFN-γ ([2]; Exp I, 3 μM): 1260 | IFN-γ ([2]; Exp I, 9 μM): 1260 | IFN-γ ([2]; Exp I, 27 μM): 1260 | IFN-γ ([2]; Exp I, 81 μM): 1313 | IFN-γ ([2]; Exp I, 244 μM): 998 | IFN-γ ([2]; Exp I, 733 μM): 570 | IFN-γ ([2]; Exp I, 2.2 mM): 285 | IFN-γ ([2]; Exp I, 6.7 mM): < 285 | IFN-γ ([2]; Exp I, 20 mM): < 285 | IFN-γ ([2]; Exp II, 3 μM): 1144 | IFN-γ ([2]; Exp II, 9 μM): 1248 | IFN-γ ([2]; Exp II, 27 μM): 1248 | IFN-γ ([2]; Exp II, 81 μM): 1560 | IFN-γ ([2]; Exp II, 244 μM): 1953 | IFN-γ ([2]; Exp II, 733 μM): 1172 | IFN-γ ([2]; Exp II, 2.2 mM): 703 | IFN-γ ([2]; Exp II, 6.7 mM): < 469 | IFN-γ ([2]; Exp II, 20 mM): < 469 | IC50 ([2]; Homo sapiens, Lymphocyte, primary MLR, read-out: concentration causing 50% reduction in IFN-γ production): ~2.2 mM | toxicity ([3]; as high as 20 mM): no toxicity | Cells/ml ([3]; first individual, (+) PHA, 3 μM): 0.45 X 10^6 Cells/ml | Cells/ml ([3]; first individual, (+) PHA, 9 μM): 0.47 X 10^6 Cells/ml | Cells/ml ([3]; first individual, (+) PHA, 27 μM): 0.46 X 10^6 Cells/ml | Cells/ml ([3]; first individual, (+) PHA, 81 μM): 0.38 X 10^6 Cells/ml | Cells/ml ([3]; first individual, (+) PHA, 244 μM): 0.44 X 10^6 Cells/ml | Cells/ml ([3]; first individual, (+) PHA, 733 μM): 0.38 X 10^6 Cells/ml | Cells/ml ([3]; first individual, (+) PHA, 2.2 mM): 0.49 X 10^6 Cells/ml | Cells/ml ([3]; first individual, (+) PHA, 6.7 mM): 0.46 X 10^6 Cells/ml | Cells/ml ([3]; first individual, (+) PHA, 20 mM): 0.49 X 10^6 Cells/ml | Cells/ml ([3]; first individual, (-) PHA, 3 μM): 0.39 X 10^6 Cells/ml | Cells/ml ([3]; first individual, (-) PHA, 9 μM): 0.55 X 10^6 Cells/ml | Cells/ml ([3]; first individual, (-) PHA, 27 μM): 0.44 X 10^6 Cells/ml | Cells/ml ([3]; first individual, (-) PHA, 81 μM): 0.42 X 10^6 Cells/ml | Cells/ml ([3]; first individual, (-) PHA, 244 μM): 0.40 X 10^6 Cells/ml | Cells/ml ([3]; first individual, (-) PHA, 733 μM): 0.37 X 10^6 Cells/ml | Cells/ml ([3]; first individual, (-) PHA, 2.2 mM): 0.57 X 10^6 Cells/ml | Cells/ml ([3]; first individual, (-) PHA, 6.7 mM): 0.57 X 10^6 Cells/ml | Cells/ml ([3]; first individual, (-) PHA, 20 mM): 0.5 X 10^6 Cells/ml | Cells/ml ([3]; second individual, (+) PHA, 3 μM): 0.40 X 10^6 Cells/ml | Cells/ml ([3]; second individual, (+) PHA, 9 μM): 0.50 X 10^6 Cells/ml | Cells/ml ([3]; second individual, (+) PHA, 27 μM): 0.50 X 10^6 Cells/ml | Cells/ml ([3]; second individual, (+) PHA, 81 μM): 0.40 X 10^6 Cells/ml | Cells/ml ([3]; second individual, (+) PHA, 244 μM): 0.54 X 10^6 Cells/ml | Cells/ml ([3]; second individual, (+) PHA, 733 μM): 0.40 X 10^6 Cells/ml | Cells/ml ([3]; second individual, (+) PHA, 2.2 mM): 0.50 X 10^6 Cells/ml | Cells/ml ([3]; second individual, (+) PHA, 6.7 mM): 0.50 X 10^6 Cells/ml | Cells/ml ([3]; second individual, (+) PHA, 20 mM): 0.55 X 10^6 Cells/ml | Cells/ml ([3]; second individual, (-) PHA, 3 μM): 0.44 X 10^6 Cells/ml | Cells/ml ([3]; second individual, (-) PHA, 9 μM): 0.52 X 10^6 Cells/ml | Cells/ml ([3]; second individual, (-) PHA, 27 μM): 0.50 X 10^6 Cells/ml | Cells/ml ([3]; second individual, (-) PHA, 81 μM): 0.46 X 10^6 Cells/ml | Cells/ml ([3]; second individual, (-) PHA, 244 μM): 0.5 X 10^6 Cells/ml | Cells/ml ([3]; second individual, (-) PHA, 733 μM): 0.41 X 10^6 Cells/ml | Cells/ml ([3]; second individual, (-) PHA, 2.2 mM): 0.54 X 10^6 Cells/ml | Cells/ml ([3]; second individual, (-) PHA, 6.7 mM): 0.6 X 10^6 Cells/ml | Cells/ml ([3]; second individual, (-) PHA, 20 mM): 0.5 X 10^6 Cells/ml | viability at 3 µM ([4]; first individual, (+) PHA): 100% | viability at 9 µM ([4]; first individual, (+) PHA): 100% | viability at 27 µM ([4]; first individual, (+) PHA): 100% | viability at 81 µM ([4]; first individual, (+) PHA): 100% | viability at 244 µM ([4]; first individual, (+) PHA): 100% | viability at 733 µM ([4]; first individual, (+) PHA): 100% | viability at 2200 µM ([4]; first individual, (+) PHA): 100% | viability at 6700 µM ([4]; first individual, (+) PHA): 100% | viability at 20000 µM ([4]; first individual, (+) PHA): 100% | viability at 3 µM ([4]; first individual, (-) PHA): 100% | viability at 9 µM ([4]; first individual, (-) PHA): 100% | viability at 27 µM ([4]; first individual, (-) PHA): 100% | viability at 81 µM ([4]; first individual, (-) PHA): 100% | viability at 244 µM ([4]; first individual, (-) PHA): 100% | viability at 733 µM ([4]; first individual, (-) PHA): 100% | viability at 2200 µM ([4]; first individual, (-) PHA): 100% | viability at 6700 µM ([4]; first individual, (-) PHA): 100% | viability at 20000 µM ([4]; first individual, (-) PHA): 100% | viability at 3 µM ([4]; second individual, (+) PHA): 100% | viability at 9 µM ([4]; second individual, (+) PHA): 100% | viability at 27 µM ([4]; second individual, (+) PHA): 100% | viability at 81 µM ([4]; second individual, (+) PHA): 100% | viability at 244 µM ([4]; second individual, (+) PHA): 100% | viability at 733 µM ([4]; second individual, (+) PHA): 100% | viability at 2200 µM ([4]; second individual, (+) PHA): 100% | viability at 6700 µM ([4]; second individual, (+) PHA): 100% | viability at 20000 µM ([4]; second individual, (+) PHA): 100% | viability at 3 µM ([4]; second individual, (-) PHA): 100% | viability at 9 µM ([4]; second individual, (-) PHA): 100% | viability at 27 µM ([4]; second individual, (-) PHA): 100% | viability at 81 µM ([4]; second individual, (-) PHA): 100% | viability at 244 µM ([4]; second individual, (-) PHA): 100% | viability at 733 µM ([4]; second individual, (-) PHA): 100% | viability at 2200 µM ([4]; second individual, (-) PHA): 100% | viability at 6700 µM ([4]; second individual, (-) PHA): 100% | viability at 20000 µM ([4]; second individual, (-) PHA): 100%
